Measurements published in ChEMBL document CHEMBL5380862, “Unsymmetrical Phosphodiesters as GPR84 Antagonists with High Blood Exposure for the Treatment of Lung Inflammation” (J Med Chem, 2023).
Active and inactive are the calls of the source. No cut-off for these calls is given here.

Columns and labels:
[1] = Drug distribution in mouse brain at 5 mg/kg, po administered as single dose and measured after 2 hrs by LC-MS analysis; assay type: ADME, organism-based; conditions: read-out: Drug uptake
[2] = target: T1, Free fatty acid receptor 3 (Homo sapiens) (UniProt O14843); test: Antagonist activity at GPR41 (unknown origin) expressed in HEK293 cells co-expressing Galpha16 assessed as inhibition of sodium butyrate induced calcium response upto 100 uM incubated for 10 mins by calcium mobilization assay; assay type: functional, cell-based
T1 sequence (whole entry): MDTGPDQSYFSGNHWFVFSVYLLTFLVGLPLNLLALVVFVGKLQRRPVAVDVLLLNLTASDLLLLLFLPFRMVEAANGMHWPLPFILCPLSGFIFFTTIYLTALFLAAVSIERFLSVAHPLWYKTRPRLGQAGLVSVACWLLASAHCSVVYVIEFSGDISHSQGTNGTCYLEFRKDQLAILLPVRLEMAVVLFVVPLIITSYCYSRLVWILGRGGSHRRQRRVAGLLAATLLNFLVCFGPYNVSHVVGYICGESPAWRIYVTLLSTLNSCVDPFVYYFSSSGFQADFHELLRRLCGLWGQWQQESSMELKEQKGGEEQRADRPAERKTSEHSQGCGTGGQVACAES

[3] = target: D(1A) dopamine receptor (Homo sapiens) (UniProt P21728); test: Antagonist activity at DRD1 (unknown origin) expressed in HEK293 cells co-expressing Galpha16 assessed as inhibition of dopamine induced calcium response upto 100 uM incubated for 10 mins by calcium mobilization assay; assay type: functional, cell-based
Chain of D(1A) dopamine receptor (Homo sapiens) (P21728 whole entry): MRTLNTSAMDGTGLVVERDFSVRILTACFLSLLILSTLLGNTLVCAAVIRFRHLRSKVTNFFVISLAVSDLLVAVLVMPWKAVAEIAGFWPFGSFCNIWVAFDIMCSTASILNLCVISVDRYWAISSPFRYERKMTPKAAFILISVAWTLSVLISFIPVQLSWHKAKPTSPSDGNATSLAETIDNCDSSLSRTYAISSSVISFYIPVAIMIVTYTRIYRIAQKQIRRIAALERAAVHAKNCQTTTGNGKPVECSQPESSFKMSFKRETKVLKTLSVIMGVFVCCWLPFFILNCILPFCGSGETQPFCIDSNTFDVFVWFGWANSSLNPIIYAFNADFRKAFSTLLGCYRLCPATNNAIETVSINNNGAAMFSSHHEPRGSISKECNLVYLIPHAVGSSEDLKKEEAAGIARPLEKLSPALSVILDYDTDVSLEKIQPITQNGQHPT

[4] = Drug distribution in mouse lung at 5 mg/kg, po administered as single dose and measured after 8 hrs by LC-MS analysis; assay type: ADME, organism-based; conditions: read-out: Drug uptake
[5] = Drug distribution in mouse plasma at 5 mg/kg, po administered as single dose and measured after 8 hrs by LC-MS analysis; assay type: ADME, organism-based; conditions: read-out: Drug uptake
[6] = target: T2, Free fatty acid receptor 4 (Homo sapiens) (UniProt Q5NUL3); test: Antagonist activity at GPR120 (unknown origin) expressed in HEK293 cells co-expressing Galpha16 assessed as inhibition of TUG-981 induced calcium response upto 100 uM incubated for 10 mins by calcium mobilization assay; assay type: functional, cell-based
T2 sequence (whole entry): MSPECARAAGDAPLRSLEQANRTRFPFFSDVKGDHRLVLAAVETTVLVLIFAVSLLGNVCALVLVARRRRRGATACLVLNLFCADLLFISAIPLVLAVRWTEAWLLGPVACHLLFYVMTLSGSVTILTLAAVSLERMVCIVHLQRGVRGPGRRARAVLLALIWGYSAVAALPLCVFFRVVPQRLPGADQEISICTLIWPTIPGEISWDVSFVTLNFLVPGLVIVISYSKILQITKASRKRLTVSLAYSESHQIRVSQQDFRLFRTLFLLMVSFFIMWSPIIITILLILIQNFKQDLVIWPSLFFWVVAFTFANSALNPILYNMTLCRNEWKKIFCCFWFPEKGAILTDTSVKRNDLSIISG

Monocyte [7] = test: Inhibition of cell migration in 3-hydroxydodecanoic acid-stimulated mouse CD11bpositive Ly6Cpositive monocytes at 0.01 to 1 uM incubated for 1.5 hrs by flow cytometric analysis; assay type: functional, cell-based; conditions: dose 0.01-1 µM
[8] = Drug distribution in mouse plasma at 5 mg/kg, po administered as single dose and measured after 0.5 hrs by LC-MS analysis; assay type: ADME, organism-based
Neutrophil [9] = test: Inhibition of cell migration in 3-hydroxydodecanoic acid-stimulated mouse CD11bpositive Ly6Gpositive neutrophils at 0.01 to 1 uM incubated for 1.5 hrs by flow cytometric analysis; assay type: functional, cell-based; conditions: dose 0.01-1 µM
[10] = Drug distribution in mouse lung at 5 mg/kg, po administered as single dose and measured after 0.5 hrs by LC-MS analysis; assay type: ADME, organism-based; conditions: read-out: Drug uptake
[11] = target: G-protein coupled receptor 84 (Mus musculus) (UniProt Q8CIM5); test: Antagonist activity at mouse GPR84 expressed in HEK293 cells co-expressing Galpha16 assessed as inhibition of 6-OAU induced calcium response incubated for 10 mins by calcium mobilization assay; assay type: functional, cell-based; conditions: filed as antagonist
Chain of G-protein coupled receptor 84 (Mus musculus) (Q8CIM5 whole entry): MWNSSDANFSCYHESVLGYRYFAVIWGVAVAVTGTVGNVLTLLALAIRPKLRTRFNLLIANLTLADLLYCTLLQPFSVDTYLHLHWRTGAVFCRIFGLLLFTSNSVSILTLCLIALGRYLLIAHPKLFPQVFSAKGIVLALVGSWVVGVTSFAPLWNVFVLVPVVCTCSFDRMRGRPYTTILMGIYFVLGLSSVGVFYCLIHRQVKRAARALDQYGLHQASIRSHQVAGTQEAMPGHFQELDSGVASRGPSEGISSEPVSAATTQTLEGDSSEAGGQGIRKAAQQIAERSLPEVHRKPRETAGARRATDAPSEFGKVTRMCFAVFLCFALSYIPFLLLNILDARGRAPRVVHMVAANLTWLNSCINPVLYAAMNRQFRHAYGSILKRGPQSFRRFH

[12] = Aqueous solubility of the compound incubated overnight by HPLC-DAD analysis; assay type: physicochemical; conditions: aqueous medium
[13] = target: Beta-2 adrenergic receptor (Homo sapiens) (UniProt P07550); test: Antagonist activity at ARbeta2 (unknown origin) expressed in HEK293 cells co-expressing Galpha16 assessed as inhibition of Isoproterenol induced calcium response upto 100 uM incubated for 10 mins by calcium mobilization assay; assay type: functional, cell-based
Chain of Beta-2 adrenergic receptor (Homo sapiens) (P07550 whole entry, looked up): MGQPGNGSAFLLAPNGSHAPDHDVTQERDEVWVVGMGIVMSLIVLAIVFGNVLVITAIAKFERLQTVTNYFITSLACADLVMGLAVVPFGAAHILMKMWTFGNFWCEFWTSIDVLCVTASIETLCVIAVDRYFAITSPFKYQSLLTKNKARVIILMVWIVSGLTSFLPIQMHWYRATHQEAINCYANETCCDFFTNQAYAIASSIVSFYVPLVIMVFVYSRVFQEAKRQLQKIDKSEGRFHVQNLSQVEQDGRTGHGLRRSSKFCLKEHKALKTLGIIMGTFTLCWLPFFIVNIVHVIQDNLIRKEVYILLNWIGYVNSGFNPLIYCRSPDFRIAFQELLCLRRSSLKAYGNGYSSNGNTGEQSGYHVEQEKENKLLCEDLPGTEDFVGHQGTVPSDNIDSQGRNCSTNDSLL

[14] = target: Beta-3 adrenergic receptor (Homo sapiens) (UniProt P13945); test: Antagonist activity at ARbeta3 (unknown origin) expressed in HEK293 cells co-expressing Galpha16 assessed as inhibition of Isoproterenol induced calcium response upto 100 uM incubated for 10 mins by calcium mobilization assay; assay type: functional, cell-based
Chain of Beta-3 adrenergic receptor (Homo sapiens) (P13945 whole entry, looked up): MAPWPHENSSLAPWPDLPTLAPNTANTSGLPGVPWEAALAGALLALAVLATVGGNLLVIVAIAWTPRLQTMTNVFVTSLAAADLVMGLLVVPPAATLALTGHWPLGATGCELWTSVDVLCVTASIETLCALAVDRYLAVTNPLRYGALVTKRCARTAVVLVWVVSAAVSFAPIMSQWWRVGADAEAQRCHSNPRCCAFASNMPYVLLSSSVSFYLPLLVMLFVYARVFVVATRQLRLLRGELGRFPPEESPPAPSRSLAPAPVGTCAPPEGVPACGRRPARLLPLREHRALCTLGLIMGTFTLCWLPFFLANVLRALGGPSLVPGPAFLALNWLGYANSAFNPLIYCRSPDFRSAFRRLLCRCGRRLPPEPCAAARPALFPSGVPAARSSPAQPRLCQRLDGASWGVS

[15] = Drug distribution in mouse liver at 5 mg/kg, po administered as single dose and measured after 2 hrs by LC-MS analysis; assay type: ADME, organism-based; conditions: read-out: Drug uptake
[16] = Drug distribution in mouse plasma at 5 mg/kg, po administered as single dose and measured after 2 hrs by LC-MS analysis; assay type: ADME, organism-based
[17] = target: Free fatty acid receptor 1 (Homo sapiens) (UniProt O14842); test: Antagonist activity at GPR40 (unknown origin) expressed in HEK293 cells co-expressing Galpha16 assessed as inhibition of TAK-875 induced calcium response upto 100 uM incubated for 10 mins by calcium mobilization assay; assay type: functional, cell-based
Chain of Free fatty acid receptor 1 (Homo sapiens) (O14842 whole entry): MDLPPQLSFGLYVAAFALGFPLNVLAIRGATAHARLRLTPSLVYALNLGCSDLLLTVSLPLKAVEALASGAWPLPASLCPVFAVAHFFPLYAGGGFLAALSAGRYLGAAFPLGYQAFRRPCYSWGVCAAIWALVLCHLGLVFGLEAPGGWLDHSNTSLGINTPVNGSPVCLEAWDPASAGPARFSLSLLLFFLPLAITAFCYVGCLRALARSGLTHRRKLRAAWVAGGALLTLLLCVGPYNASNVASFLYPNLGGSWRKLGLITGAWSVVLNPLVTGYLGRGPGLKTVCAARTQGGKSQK

[18] = Drug distribution in mouse liver at 5 mg/kg, po administered as single dose and measured after 0.5 hrs by LC-MS analysis; assay type: ADME, organism-based; conditions: read-out: Drug uptake
[19] = Drug distribution in mouse liver at 5 mg/kg, po administered as single dose and measured after 8 hrs by LC-MS analysis; assay type: ADME, organism-based; conditions: read-out: Drug uptake
[20] = Drug distribution in mouse lung at 5 mg/kg, po administered as single dose and measured after 2 hrs by LC-MS analysis; assay type: ADME, organism-based; conditions: read-out: Drug uptake
Monocyte [21] = test: Inhibition of cell migration in 6-n-[…]-stimulated mouse CD11bpositive Ly6Cpositive monocyte at 0.01 to 1 uM incubated for 1.5 hrs by flow cytometric analysis; assay type: functional, cell-based; conditions: dose 0.01-1 µM
[22] = target: Beta-1 adrenergic receptor (Homo sapiens) (UniProt P08588); test: Antagonist activity at ARbeta1 (unknown origin) expressed in HEK293 cells co-expressing Galpha16 assessed as inhibition of Isoproterenol induced calcium response upto 100 uM incubated for 10 mins by calcium mobilization assay; assay type: functional, cell-based
Chain of Beta-1 adrenergic receptor (Homo sapiens) (P08588 whole entry, looked up): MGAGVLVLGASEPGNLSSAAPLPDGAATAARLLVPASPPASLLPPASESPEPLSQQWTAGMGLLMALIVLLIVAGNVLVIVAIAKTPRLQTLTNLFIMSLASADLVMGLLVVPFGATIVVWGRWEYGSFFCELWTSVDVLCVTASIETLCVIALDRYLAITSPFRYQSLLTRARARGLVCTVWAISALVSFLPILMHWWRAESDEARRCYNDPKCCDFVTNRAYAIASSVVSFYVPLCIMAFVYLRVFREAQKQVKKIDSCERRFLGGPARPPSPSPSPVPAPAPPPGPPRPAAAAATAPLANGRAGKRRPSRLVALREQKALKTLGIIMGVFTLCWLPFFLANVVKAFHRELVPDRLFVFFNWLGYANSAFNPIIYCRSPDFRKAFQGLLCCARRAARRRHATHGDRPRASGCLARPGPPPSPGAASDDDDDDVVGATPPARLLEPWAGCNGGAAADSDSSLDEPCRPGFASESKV

[23] = AUClast in ICR mouse at 5 mg/kg, po administered as single dose; assay type: ADME, organism-based; set-up: dose 5 mg/kg, route po; conditions: in vivo
[24] = target: Kappa-type opioid receptor (Homo sapiens) (UniProt P41145); test: Antagonist activity at KOR (unknown origin) expressed in HEK293 cells co-expressing Galpha16 assessed as inhibition of U50488 induced calcium response upto 100 uM incubated for 10 mins by calcium mobilization assay; assay type: functional, cell-based
Chain of Kappa-type opioid receptor (Homo sapiens) (P41145 whole entry): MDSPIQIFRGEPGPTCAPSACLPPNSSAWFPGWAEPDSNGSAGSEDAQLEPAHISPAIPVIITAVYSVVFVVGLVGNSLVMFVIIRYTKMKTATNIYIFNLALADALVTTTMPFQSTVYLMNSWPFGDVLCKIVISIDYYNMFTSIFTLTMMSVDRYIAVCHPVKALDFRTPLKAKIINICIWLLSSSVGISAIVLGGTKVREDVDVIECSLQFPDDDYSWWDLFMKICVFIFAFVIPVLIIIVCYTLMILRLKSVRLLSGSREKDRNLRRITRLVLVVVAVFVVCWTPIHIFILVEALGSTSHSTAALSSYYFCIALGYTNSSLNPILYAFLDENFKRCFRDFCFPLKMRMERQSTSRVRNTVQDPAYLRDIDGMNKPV

Neutrophil [25] = test: Inhibition of cell migration in 6-n-[…]-stimulated mouse CD11bpositive Ly6Gpositive neutrophils at 0.01 to 1 uM incubated for 1.5 hrs by flow cytometric analysis; assay type: functional, cell-based; conditions: dose 0.01-1 µM

concentration at 2 h [1]: 6.3 ng/g | inhibition [2]: inactive | inhibition [3]: inactive | concentration at 8 h [4]: 26.1 ng/g | concentration at 8 h [5]: 50.7 ng/mL | inhibition [6]: inactive | concentration at 0.5 h [8]: 135 ng/mL | concentration at 0.5 h [10]: 18.6 ng/g | inhibition [11]: Active | solubility [12]: 891 µg/mL | inhibition [13]: inactive | inhibition [14]: inactive | concentration at 2 h [15]: 1960 ng/g | concentration at 2 h [16]: 393 ng/mL | inhibition [17]: inactive | concentration at 0.5 h [18]: 297 ng/g | concentration at 8 h [19]: 1180 ng/g | concentration at 2 h [20]: 60.5 ng/g | inhibition [22]: inactive | AUC(0-t) [23]: 502 ng·h/mL | inhibition [24]: inactive
Compound: O=P([O-])(OC1=Cc2c(Cl)cccc2Sc2ccccc21)OC1=Cc2c(Cl)cccc2Sc2ccccc21.[Na+]
inhibition (Monocyte [7]): Active | inhibition (Neutrophil [9]): Active | inhibition (Monocyte [21]): Active | inhibition (Neutrophil [25]): Active
